Laboratory results as given in US6833373B1, “Method of using an integrin antagonist and one or more antineoplastic agents as a combination therapy in the treatment of neoplasia” (G.D. Searle & Co., priority 1998, dated 2004).

What was measured:
human U251 glioblastoma = assay: U251 glioblastoma model; format: in vivo, SCID mice; settings: for tumor growth (mean tumor volume with time): compound I7 10 mg/kg BID PO day 14-44, BCNU 12 mg/kg once a day on days 14, 18 and 22
Protocol: compound I7 was evaluated in the human U251 glioblastoma model. The tumors were implanted onto the flanks of SCID mice and the mean tumor volume with time was calculated. […] These clinically relevant measurements of antitumor efficacy establish the antitumor efficacy of compound I7, especially when combined with standard of care chemotherapeutic agents.

[1] = 15 mg/kg/day, biliary cirrhosis trials; cited from earlier work
[2] = tested on: Rice 500 rat Leydig testicular tumor; assay: Rice 500 rat Leydig testicular tumor model; format: in vivo, SCID mice; settings: for survival compared to vehicle treated controls: single agents, p<0.05
Protocol: The Rice 500 rat Leydig testicular tumor grows very quickly when implanted into the flank of SCID mice. […] Tumor growth was reduced by about 50% at the […] dose in this aggressive model. […] Similar to the results seen in the M21 tumor model, compound I7 increased the effects of cisplatin in the Leydig tumor model. […] In a similar experiment, the effects of compound I7, cisplatin and the combination were evaluated for potentiation of overall survival in the Leydig tumor mice. Survival was increased by either compound I7 or cisplatin alone when compared to vehicle treated controls (p<0.05). More importantly, the combination of the two agents almost doubled overall survival (from 17 to 29 days) (p<0.0l combination vs. cisplatin, p<0.001 combination vs. control). Thus, the ability of compound I7 to work alone or in combination therapy to prevent tumor growth clearly correlates with enhanced survival.

lung tumors = assay: Implanted tumor cells, lung tumors in mice, compound I7 with or without cisplatin; format: in vivo; settings: compared to the control groups; lung tumors greater than 2,000 mm^3
Excerpt: In an additional experiment, tumor cells were implanted into mice; lung tumors of volumes greater than 2,000 mm^3 were developed. The mice were then separated into four groups, including a control group and three treatment groups: compound I7 alone; compound I7 with cisplatin (a cytotoxic drug); or cisplatin alone. Compared to the control groups, the mice treated with combination compound I7/cisplatin therapy experienced more than an 80 percent reduction in tumor size. In comparison, the group receiving cisplatin alone experienced 50 percent reductions in tumor size and the compound I7 group experienced 20-30 percent reductions. These studies indicate that compound I7 has prominent anti-tumor activity.

[3] = tested on: Lewis Lung carcinoma (LLC); assay: Lewis Lung carcinoma (LLC) model; settings: for growth of the LLC tumor (primary tumor mass): compound I7 1 and 10 mg/kg BID PO from day 1, cisplatin single ip dose 10 mg/kg on day 5; for median survival time: compound I7 at 10 mg/kg
Protocol: Tumor cells for implantation were taken from cells either grown in tissue culture (Leydig, M21) or serially passaged as tumors in mice and prepared as tumor brei (LLC). […] Tumor volumes were measured at intervals over the course of the experiments. Tumors were measured with a vernier caliper and volumes were determined using the formula for the volume of a cylinder: tumor volume=width^2×length×0.52. […] On the final day of the experiment, tumors were dissected free and weighed. The data are expressed as the mean +/− SEM. Student's and Mann-Whitney tests were used to assess differences between means or medians using the InStat software package.

[4] = tested on: A2780 human ovarian carcinoma; assay: A2780 mouse model; format: in vivo, SCID mice; settings: compound I7 10 mg/kg BID PO; cisplatin 10 mg/kg ip once on day 20
Excerpt: compound I7 prevents the growth of human ovarian carcinoma in SCID mice. […] Survival studies are now underway to characterize the survival benefit of combination therapy in this model.

M21 human melanoma cells = assay: M21 human melanoma model; format: in vivo, SCID mice
Protocol: In the M21 model, M21 human melanoma cells implanted subcutaneously into SCID mice developed tumors which grew to approximately 400 mm^3 within 30 days. […] Cisplatin was administered once by ip injection (10 mg/kg) on day 14. […] The results of this dose sequencing experiment establish the efficacy of compound I7 in combination therapy with cisplatin when administered before, concurrent with, or after cisplatin dosing.

[5] = tested on: 435/GFP HAL-1 (MDA-MB-435 breast carcinoma) cells; assay: Metastasis model, 435/GFP HAL-1 orthotopic implantation; format: in vivo, SCID mice; settings: for reduction in lung metastatic burden: eight weeks
Excerpt: Accurate quantitation of early-stage metastasis in animal models is typically hampered by the lack of sensitive and convenient assays to detect low numbers of tumor cells in a background of normal tissue. Quantitation of late-stage metastasis by counting of visible foci or comparison of organ weights requires substantial tumor burden which can take 3-4 months to develop in conventional models of breast cancer, and generally cannot detect subtle differences. […] The GFP-transfected cells are easily detected by flow cytometry, and fixation of the cells or the addition of antibodies or exogenous substrates is not required. A highly aggressive clone was isolated from the lung of a SCID mouse implanted in the mammary fat pad with several GFP-expressing clones. […] Eight weeks later, lungs were removed and weighed.

[6] = tested on: Cancer cells implanted subcutaneously; settings: large-volume tumors (>1,500 mm^3); dose dependent; cited from earlier work
[7] = tested on: angiogenesis induced by bFGF or VEGF; assay: Corneal micropocket assay; format: in vivo, female C57BL6 mice; settings: BID
Excerpt: In this model, an intrastromal pocket is surgically created in the normally avascular cornea of female C57BL6 mice 1 mm distance from the corneal-scleral junction. A slow release hydron polymer pellet containing an angiogenic growth factor (bFGF or VEGF) is inserted into the corneal pocket. The pocket is self sealing and antibiotic ointment is placed in the eye.

O=NN(CCCl)C(=O)NCCCl [BCNU, carmustine]
tumor growth (mean tumor volume with time) (human U251 glioblastoma): regression of the tumors to the limit of detectability, but the tumors grew back | duration of the response (human U251 glioblastoma; p<0.01): 5 days

C[C@H](CCC(=O)O)[C@H]1CC[C@H]2[C@@H]3[C@@H](O)C[C@@H]4C[C@H](O)CC[C@]4(C)[C@H]3CC[C@]12C [URSO, Ursodeoxycholate]
tolerability [1]: extremely well tolerated and without toxicity

N.N.[Cl][Pt][Cl] [cisplatin, reference compound]
survival compared to vehicle treated controls [2]: increased | reduction in tumor size (lung tumors): 50% | time to develop a tumor >500 mm^3 ([3]; cisplatin 10 mg/kg ip day 5, compound I7 10 mg/kg): 22.4 days | growth of the LLC tumor (primary tumor mass) [3]: significantly retarded the growth | median survival time ([3]; cisplatin 10 mg/kg ip day 5): 33 days | tumor growth [4]: decreasing tumor growth

O=C(O)C[C@@H](NC(=O)CNC(=O)c1cc(O)cc(NC2=NCC(O)CN2)c1)c1cc(Cl)cc(Br)c1O (stereo partly drawn) [compound I7, (3R)-N-[3-hydroxy-5-[(1,4,5,6-tetrahydro-5-hydroxy-2-pyrimidinyl)amino]benzoyl]glycyl-3-(3-bromo-5-chloro-2-hydroxyphenyl)-b-alanine]
time to tumor volume >200 mm^3 (M21 human melanoma cells; 10 mg/kg): 27 days | growth of M21 tumors (M21 human melanoma cells; oral BID, at time of tumor implantation or beginning up to 21 days after): dose-dependently retarded the growth | tumor growth reduced ([2]; 2 mg/ml dose in drinking water): about 50% | inhibition of tumor growth ([2]; compound I7 10 or 100 mg/kg BID PO from day 5, monotherapy or with cisplatin 10 mg/kg ip once day 5, p<0.01 vs control): Dose-related inhibition of tumor growth | tumor growth ([2]; in the drinking water at 0.02 to 2 mg/ml): inhibited tumor growth dose-dependently | survival compared to vehicle treated controls [2]: increased | reduction in lung metastatic burden ([5]; 10 mg/kg BID orally): 55% | reduction in lung metastatic burden ([5]; 30 mg/kg BID orally): 69% | spontaneous metastasis of 435 breast carcinoma cells to the lungs ([5]; 1, 10 and 30 mg/kg BID orally, visual counting or flow cytometry): dose-dependently reduced | growth of the primary tumor mass ([5]; mouse, in vivo): did not delay the growth | histological examination of lung sections ([5]; mouse, in vivo): dramatic reduction in the number of large macroscopic metastases and an increase in the presence of microscopic foci of metastases | reduction in tumor size (lung tumors): 20-30% | reduced tumor growth [6]: ≤ 85% | growth of the LLC tumor (primary tumor mass) [3]: did not affect the growth | median survival time ([3]; cisplatin 10 mg/kg ip day 5): 33 days | angiogenesis induced by either bFGF or VEGF [7]: inhibited angiogenesis | inhibition of the angiogenic response ([7]; maximal inhibitory activity at 10 mg/kg BID orally): up to 42% | tumor growth (mean tumor volume with time) (human U251 glioblastoma): little inhibition of tumor growth | tumor growth [4]: equally effective as cisplatin
